Test results reported in patent US9745261B2, “Inhibitors of the MITF molecular pathway” (THE GENERAL HOSPITAL CORPORATION, priority 2013, dated 2017).

Tests used:
[1] = test system: primary human melanocytes; experiment: Cell proliferation/viability assay of primary human melanocytes; assay type: cell-based; conditions: Melanocyte, 24 hours, CellTiter-Glo
Experimental: Primary human neonatal melanocytes were isolated from discarded foreskins by gentle dispase treatment and grown in Ham's F10 media supplemented with 7% FBS, penicillin/streptomycin/glutamine, 0.1 mM methyl-3-(2-methylpropyl)-7H-1-purine-2,6-dione (IBMX), 50 ng/mL 12-tetradecanoylphorbol 13-acetate (TPA), 1 μM Na3VO4 and 1 μM N(6),2′-O-dibutyryladenosine 3′:5′ cyclic monophosphate (dbcAMP). Cells were plated at 4,000 cells per well of a 384 well plate. On the following day, 10 nL of compound was added per well and incubated for 24 hours. The compounds were tested at different concentrations to determine IC50 values. At the end of compound treatment, cell viability was measured with CellTiter-Glo (Promega) and luminescence measured with the PerkinElmer EnVision plate reader. Data were normalized against DMSO in Genedata Screener's Assay Analyzer.
Primary human neonatal melanocytes were isolated from discarded foreskins by gentle dispase treatment and grown in TIVA media (Ham's F10 media supplemented with 7% FBS, penicillin/streptomycin/glutamine, 0.1 mM IBMX, 50 ng/mL TPA, […]). […]
Day 3 • 5. […] Read on the Perkin-Elmer EnVision plate reader with luminescence (LUM) settings for 0.1 sec per well. qPCR Assay for Target Gene Expression (MITF: 2084-05, TRPM1: 2084-09, CDK2: 2084-11, DCT: 2084-12, MLANA: 2084-13)

Endothelin ETA = molecular target: T1, Endothelin ETA (Homo sapiens, UniProt P25101); experiment: Radioligand binding, Endothelin ETA
T1 construct: Eurofins Panlabs, Inc. (contract assay)

Adrenergic α2A = molecular target: T2, Adrenergic α2A (Homo sapiens, UniProt P08913); experiment: Radioligand binding, Adrenergic α2A
T2 construct: Eurofins Panlabs, Inc. (contract assay)

Opiate κ (OP2, KOP) = molecular target: T3, Opiate κ (OP2, KOP) (Homo sapiens, UniProt P41145); experiment: Radioligand binding, Opiate κ (OP2, KOP)
T3 construct: Eurofins Panlabs, Inc

Bradykinin B2 = molecular target: T4, Bradykinin B2 (Homo sapiens, UniProt P30411); experiment: Radioligand binding, Bradykinin B2
T4 construct: Eurofins Panlabs, Inc. (contract assay)

Melatonin MT1 = molecular target: T5, Melatonin MT1 (Homo sapiens, UniProt P48039); experiment: Radioligand binding, Melatonin MT1
T5 construct: Eurofins Panlabs, Inc

Potassium Channel [KATP] = molecular target: T6, Potassium Channel [KATP] (Cricetus cricetus, UniProt Q09427); experiment: Radioligand binding, Potassium Channel [KATP]; conditions: hamster
T6 construct: Eurofins Panlabs
Experimental: To evaluate, in radioligand binding assays, the activity of the compound of Example 1 across a panel of 67 receptors.
Methods employed in this study have been adapted from the scientific literature to maximize reliability and reproducibility. Reference standards were run as an integral part of each assay to ensure the validity of the results obtained.
Where presented, IC50 values were determined by a non-linear, least squares regression analysis using MathIQ™ (ID Business Solutions Ltd., UK). Where inhibition constant (Ki) are presented, the Ki values were calculated using the equation of Cheng and Prusoff (Cheng. Y., Prusoff, W. H., Biochem. Pharmacol. 22:3099-3108, 1973) using the observed IC50 of the tested compound, the concentration of radioligand employed in the assay, and the historical values of the KD of the ligand (obtained experimentally at Eurofins Panlabs, Inc.). Where presented, the Hill coefficient (nH), defining the slope of the competitive binding curve, was calculated using MathIQ™. […] Where IC50, Ki, and/or nH data are presented without Standard Error of the Mean (SEM), data are insufficient to be quantitative, and the values presented (Ki, IC50, nH) should be interpreted with caution.

Neuropeptide Y Y1 = molecular target: T7, Neuropeptide Y Y1 (Homo sapiens, UniProt P25929); experiment: Radioligand binding, Neuropeptide Y Y1
T7 construct: Eurofins Panlabs, Inc

Histamine H1 = molecular target: T8, Histamine H1 (Homo sapiens, UniProt P35367); experiment: Radioligand binding, Histamine H1
T8 construct: Eurofins Panlabs, Inc

Dopamine D2S = molecular target: T9, Dopamine D2S (Homo sapiens, UniProt P14416); experiment: Radioligand binding, Dopamine D2S
T9 construct: Eurofins Panlabs, Inc. (contract assay)

Neuropeptide Y Y2 = molecular target: T10, Neuropeptide Y Y2 (Homo sapiens, UniProt P49146); experiment: Radioligand binding, Neuropeptide Y Y2
T10 construct: Eurofins Panlabs, Inc

Endothelin ETB = molecular target: T11, Endothelin ETB (Homo sapiens, UniProt P24530); experiment: Radioligand binding, Endothelin ETB
T11 construct: Eurofins Panlabs, Inc. (contract assay)

GABAB1A = molecular target: T12, GABAB1A (Homo sapiens, UniProt Q9UBS5); experiment: Radioligand binding, GABAB1A
T12 construct: Eurofins Panlabs, Inc

Adrenergic α1D = molecular target: T13, Adrenergic α1D (Homo sapiens, UniProt P25100); experiment: Radioligand binding, Adrenergic α1D
T13 construct: Eurofins Panlabs, Inc. (contract assay)

Cannabinoid CB1 = molecular target: T14, Cannabinoid CB1 (Homo sapiens, UniProt P21554); experiment: Radioligand binding, Cannabinoid CB1
T14 construct: Eurofins Panlabs, Inc. (contract assay)

[2] = molecular target: T15, Transporter, Norepinephrine (NET) (Homo sapiens, UniProt P23975); experiment: Radioligand binding, Transporter, Norepinephrine (NET)
T15 construct: Eurofins Panlabs

[3] = molecular target: T16, Nicotinic Acetylcholine α1, Bungarotoxin (Homo sapiens, UniProt P02708+P07510+Q07001); experiment: biochemical; assay type: binding; conditions: read-out: % Inh.
T16 construct: Eurofins Panlabs, Inc

[4] = molecular target: T17, Leukotriene, Cysteinyl CysLT1 (Homo sapiens, UniProt Q9Y271); experiment: Radioligand binding, Leukotriene, Cysteinyl CysLT1
T17 construct: Eurofins Panlabs, Inc

Transporter, GABA = molecular target: T18, Transporter, GABA (Rattus norvegicus, UniProt P23978); experiment: Radioligand binding, Transporter, GABA
T18 construct: Eurofins Panlabs

Adenosine A1 = molecular target: T19, Adenosine A1 (Homo sapiens, UniProt P30542); experiment: Radioligand binding, Adenosine A1
T19 construct: Eurofins Panlabs, Inc. (contract assay) 200510 (assay number)
T19 sequence (P30542 whole entry): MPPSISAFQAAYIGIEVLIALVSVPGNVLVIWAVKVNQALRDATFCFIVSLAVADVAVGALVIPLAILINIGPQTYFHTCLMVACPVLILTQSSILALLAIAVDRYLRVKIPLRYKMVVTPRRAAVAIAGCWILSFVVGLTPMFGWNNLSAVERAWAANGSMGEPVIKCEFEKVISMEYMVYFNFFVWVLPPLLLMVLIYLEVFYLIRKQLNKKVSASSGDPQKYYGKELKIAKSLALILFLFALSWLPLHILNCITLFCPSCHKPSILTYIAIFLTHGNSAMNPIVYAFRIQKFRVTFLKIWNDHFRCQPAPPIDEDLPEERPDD

T13 sequence (P25100 whole entry): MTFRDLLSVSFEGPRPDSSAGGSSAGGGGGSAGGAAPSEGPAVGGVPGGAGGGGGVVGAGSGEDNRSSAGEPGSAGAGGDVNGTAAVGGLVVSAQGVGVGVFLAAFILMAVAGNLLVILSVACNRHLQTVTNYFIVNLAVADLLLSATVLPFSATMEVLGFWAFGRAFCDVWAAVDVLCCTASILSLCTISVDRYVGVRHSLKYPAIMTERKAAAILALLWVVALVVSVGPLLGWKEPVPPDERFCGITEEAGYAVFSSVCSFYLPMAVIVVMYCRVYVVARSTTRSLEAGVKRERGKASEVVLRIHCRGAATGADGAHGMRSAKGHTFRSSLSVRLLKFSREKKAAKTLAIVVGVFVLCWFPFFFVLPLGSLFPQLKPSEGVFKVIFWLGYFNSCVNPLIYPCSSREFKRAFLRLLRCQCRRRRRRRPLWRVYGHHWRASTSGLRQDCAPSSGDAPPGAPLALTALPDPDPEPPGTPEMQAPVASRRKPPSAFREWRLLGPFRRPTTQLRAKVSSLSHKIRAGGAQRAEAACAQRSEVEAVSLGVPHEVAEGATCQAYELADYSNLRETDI
T9 sequence (P14416 1-414 isoform P14416-2): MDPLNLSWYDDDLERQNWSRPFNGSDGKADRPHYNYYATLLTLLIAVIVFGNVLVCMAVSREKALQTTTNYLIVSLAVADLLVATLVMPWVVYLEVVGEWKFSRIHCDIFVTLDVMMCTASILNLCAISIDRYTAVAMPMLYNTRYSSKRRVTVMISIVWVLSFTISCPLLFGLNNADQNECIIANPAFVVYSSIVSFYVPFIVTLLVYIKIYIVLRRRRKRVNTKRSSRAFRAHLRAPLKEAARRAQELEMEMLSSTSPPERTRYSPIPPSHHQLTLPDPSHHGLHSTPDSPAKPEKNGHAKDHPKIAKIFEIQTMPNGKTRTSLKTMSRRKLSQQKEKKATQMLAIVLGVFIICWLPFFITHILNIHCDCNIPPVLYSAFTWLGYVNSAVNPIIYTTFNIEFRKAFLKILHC
T4 sequence (P30411 whole entry): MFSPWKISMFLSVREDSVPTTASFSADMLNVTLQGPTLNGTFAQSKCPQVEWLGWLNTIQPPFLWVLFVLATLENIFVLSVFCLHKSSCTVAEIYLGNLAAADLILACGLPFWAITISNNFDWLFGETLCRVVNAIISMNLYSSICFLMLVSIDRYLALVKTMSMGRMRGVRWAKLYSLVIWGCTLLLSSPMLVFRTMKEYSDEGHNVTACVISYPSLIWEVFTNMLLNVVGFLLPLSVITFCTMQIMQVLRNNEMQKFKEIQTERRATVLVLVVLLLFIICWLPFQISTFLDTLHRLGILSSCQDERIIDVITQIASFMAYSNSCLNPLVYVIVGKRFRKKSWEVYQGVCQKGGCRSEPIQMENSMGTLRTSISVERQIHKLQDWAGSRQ
T8 sequence (P35367 whole entry): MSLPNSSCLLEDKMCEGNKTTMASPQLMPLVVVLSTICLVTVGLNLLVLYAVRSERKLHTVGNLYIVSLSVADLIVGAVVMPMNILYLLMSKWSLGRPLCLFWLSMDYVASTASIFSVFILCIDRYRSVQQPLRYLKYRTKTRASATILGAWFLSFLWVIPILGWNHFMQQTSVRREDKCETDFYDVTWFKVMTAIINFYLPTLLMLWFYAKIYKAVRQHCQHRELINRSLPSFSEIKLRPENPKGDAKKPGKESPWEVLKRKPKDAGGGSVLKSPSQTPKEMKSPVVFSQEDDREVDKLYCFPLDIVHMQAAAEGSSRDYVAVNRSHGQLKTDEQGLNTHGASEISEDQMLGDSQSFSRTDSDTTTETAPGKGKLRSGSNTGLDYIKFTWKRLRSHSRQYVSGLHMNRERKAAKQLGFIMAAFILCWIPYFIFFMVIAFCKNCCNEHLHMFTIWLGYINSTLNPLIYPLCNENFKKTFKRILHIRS
T15 sequence (P23975 whole entry): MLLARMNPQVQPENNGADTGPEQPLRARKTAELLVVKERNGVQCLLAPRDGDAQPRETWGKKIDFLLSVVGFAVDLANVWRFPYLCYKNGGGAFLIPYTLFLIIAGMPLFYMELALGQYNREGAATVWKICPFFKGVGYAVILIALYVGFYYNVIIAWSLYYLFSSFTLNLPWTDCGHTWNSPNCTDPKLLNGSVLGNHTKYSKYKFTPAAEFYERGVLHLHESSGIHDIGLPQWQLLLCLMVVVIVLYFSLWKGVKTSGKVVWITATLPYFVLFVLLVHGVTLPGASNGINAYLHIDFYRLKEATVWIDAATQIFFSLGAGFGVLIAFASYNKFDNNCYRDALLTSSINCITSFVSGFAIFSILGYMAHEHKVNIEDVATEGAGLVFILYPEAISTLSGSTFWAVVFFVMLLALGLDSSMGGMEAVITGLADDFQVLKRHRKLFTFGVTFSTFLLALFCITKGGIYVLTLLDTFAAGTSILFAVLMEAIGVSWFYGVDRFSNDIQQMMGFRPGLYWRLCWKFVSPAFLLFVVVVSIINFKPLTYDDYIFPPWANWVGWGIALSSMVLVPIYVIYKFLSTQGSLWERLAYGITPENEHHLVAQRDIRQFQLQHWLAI
T10 sequence (P49146 whole entry): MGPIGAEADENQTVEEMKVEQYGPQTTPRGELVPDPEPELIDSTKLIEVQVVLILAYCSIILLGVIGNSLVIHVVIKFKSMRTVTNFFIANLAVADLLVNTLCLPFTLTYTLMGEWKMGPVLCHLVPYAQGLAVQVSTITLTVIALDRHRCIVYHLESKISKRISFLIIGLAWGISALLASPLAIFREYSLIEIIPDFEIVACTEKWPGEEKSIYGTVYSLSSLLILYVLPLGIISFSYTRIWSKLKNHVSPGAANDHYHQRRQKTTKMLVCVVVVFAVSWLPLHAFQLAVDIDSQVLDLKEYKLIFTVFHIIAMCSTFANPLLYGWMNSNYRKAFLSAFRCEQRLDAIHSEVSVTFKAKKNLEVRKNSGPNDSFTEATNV
T3 sequence (P41145 whole entry): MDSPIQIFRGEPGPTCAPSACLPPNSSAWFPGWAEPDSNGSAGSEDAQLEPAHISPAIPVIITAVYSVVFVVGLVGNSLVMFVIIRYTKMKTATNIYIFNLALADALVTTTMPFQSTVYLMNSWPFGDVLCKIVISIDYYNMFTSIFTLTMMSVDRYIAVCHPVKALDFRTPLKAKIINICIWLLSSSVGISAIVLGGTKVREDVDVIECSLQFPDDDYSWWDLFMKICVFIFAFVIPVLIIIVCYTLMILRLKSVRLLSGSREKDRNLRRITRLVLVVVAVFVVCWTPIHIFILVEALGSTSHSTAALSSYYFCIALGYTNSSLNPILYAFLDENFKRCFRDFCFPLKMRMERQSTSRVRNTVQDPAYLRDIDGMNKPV
T7 sequence (P25929 whole entry): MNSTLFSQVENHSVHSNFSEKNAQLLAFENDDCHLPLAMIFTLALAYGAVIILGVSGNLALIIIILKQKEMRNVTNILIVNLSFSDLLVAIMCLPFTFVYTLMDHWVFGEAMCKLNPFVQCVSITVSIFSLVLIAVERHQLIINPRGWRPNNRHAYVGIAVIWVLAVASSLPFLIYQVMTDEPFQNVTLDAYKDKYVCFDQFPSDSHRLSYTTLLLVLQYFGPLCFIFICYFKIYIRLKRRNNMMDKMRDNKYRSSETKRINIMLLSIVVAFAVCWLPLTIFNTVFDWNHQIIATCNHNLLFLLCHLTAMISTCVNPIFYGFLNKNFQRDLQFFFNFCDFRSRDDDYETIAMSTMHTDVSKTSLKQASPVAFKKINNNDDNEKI
T1 sequence (P25101 21-427): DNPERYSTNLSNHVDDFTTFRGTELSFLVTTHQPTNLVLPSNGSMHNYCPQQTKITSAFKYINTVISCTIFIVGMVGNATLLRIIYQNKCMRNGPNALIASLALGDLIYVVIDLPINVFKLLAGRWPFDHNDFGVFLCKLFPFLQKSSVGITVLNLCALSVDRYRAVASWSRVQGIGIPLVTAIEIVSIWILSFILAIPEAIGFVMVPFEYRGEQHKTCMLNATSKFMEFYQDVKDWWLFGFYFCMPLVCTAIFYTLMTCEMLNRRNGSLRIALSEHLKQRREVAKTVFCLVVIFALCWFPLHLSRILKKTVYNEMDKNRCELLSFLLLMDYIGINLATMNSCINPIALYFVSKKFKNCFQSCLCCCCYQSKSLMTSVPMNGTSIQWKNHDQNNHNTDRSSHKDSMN

SMILES: NS(=O)(=O)c1ccc(NC2=CC(=O)c3ccccc3C2=O)cc1 [4-((1,4-dioxo-1,4-dihydronaphthalen-2-yl)amino)benzenesulfonamide]
- IC50 [1]: 7.14 µM

SMILES: NS(=O)(=O)c1ccc(NC2=CC(=O)c3ccccc3C2=O)cc1 [Example 1, 4-((1,4-Dioxo-1,4-dihydronaphthalen-2-yl)amino)benzenesulfonamide]
- inhibition at 10 µM (Endothelin ETA): 17%
- inhibition at 10 µM (Adrenergic α2A): 33%
- inhibition at 10 µM (Opiate κ (OP2, KOP)): 19%
- inhibition at 10 µM (Bradykinin B2): 11%
- inhibition at 10 µM (Melatonin MT1): 9%
- inhibition at 10 µM (Potassium Channel [KATP]): 10%
- inhibition at 10 µM (Neuropeptide Y Y1): -6%
- inhibition at 10 µM (Histamine H1): -5%
- inhibition at 10 µM (Dopamine D2S): 0%
- inhibition at 10 µM (Neuropeptide Y Y2): 5%
- inhibition at 10 µM (Endothelin ETB): 17%
- inhibition at 10 µM (GABAB1A): 11%
- inhibition at 10 µM (Adrenergic α1D): 21%
- inhibition at 10 µM (Cannabinoid CB1): 31%
- inhibition at 10 µM [2]: 8%
- inhibition at 10 µM [3]: -2%
- inhibition at 10 µM [4]: 5%
- inhibition at 10 µM (Transporter, GABA): 9%
- inhibition at 10 µM (Adenosine A1): 46%
